Measured values: US20240025906A1 (NEURON23, INC., priority 2022, published 2024)

Assays:
TYK2 JH2 = biological target: T1, TYK2 JH2 (Homo sapiens, UniProt P29597); assay: TYK2 JH2 binding assay (KINOMEscan KdELECT competitive binding); settings: TYK2 JH2 domain, DiscoverX KINOMEscan KdELECT (Assay A); read-out: Biochemical TYK2_DiscoverX_JH2_BND_Kd
T1 construct: purchased DiscoverX (KINOMEscan KdELECT service); host or cells: E. coli BL21-derived (T7 phage display) or HEK-293
Procedure, shortened: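 JH2-domain fragment, expressed as T7 phage tag in BL21-derived E. coli or DNA-tagged from HEK-293, competed with test compound against bead-immobilized biotinylated ligand in binding buffer (0.9% DMSO). 1 h shaking at room temperature; bound kinase eluted with 0.5 μM free ligand and quantified by qPCR. Kd from 11-point 3-fold dilutions.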

[1] = tested on: JAK1/TYK2 pSTAT5 (Tyr694/699) in THP-1 cell line; assay: IFNa-stimulated JAK1/TYK2 pSTAT5 (Tyr694/699) inhibition cellular assay, AlphaLISA; type: cell-based; settings: Homo sapiens; THP-1 cells, IFNa-stimulated, AlphaLISA (Assay B); read-out: Cellular_THP1_IFNa-pSTATS_TYK2
Procedure, shortened: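 The readout is AlphaLISA signal at 615 nm for phospho-STAT5 in THP-1 lysates after IFNa stimulation (added at 100 ng/mL, 30 min, 37 °C). Cells had compound for 1 h beforehand across eight 6-fold concentrations up to 10000 nM final. IC50s are 4PL fits with bottom and Hill slope constrained.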

T1 sequence (P29597 589-875 limits assumed): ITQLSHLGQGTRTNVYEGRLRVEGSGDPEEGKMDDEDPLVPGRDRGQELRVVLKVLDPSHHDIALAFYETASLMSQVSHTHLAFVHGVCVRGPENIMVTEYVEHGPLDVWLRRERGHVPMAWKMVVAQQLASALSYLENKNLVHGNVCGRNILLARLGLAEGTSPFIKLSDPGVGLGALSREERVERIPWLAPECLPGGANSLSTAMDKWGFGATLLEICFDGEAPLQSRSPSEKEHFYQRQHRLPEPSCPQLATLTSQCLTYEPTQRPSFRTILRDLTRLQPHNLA

Structure (SMILES) | Kd (TYK2 JH2) [nM] | IC50 [1] [nM]
CNc1ncc(-c2nc3cc(N4CC(OCCOC)C4)ccc3o2)c2cc(NC(=O)C3CC3)ncc12 [Example 324, N-(5-(5-(3-(2-methoxyethoxy)azetidin-1-yl)benzo[d]oxazol-2-yl)-8-(methylamino)-2,7-naphthyridin-3-yl)cyclopropanecarboxamide] | ≤ 100 | ≤ 500
CNc1ncc(-c2nc3cc(N4CC5CC(CN(C)C5)C4)ccc3o2)c2cc(NC(=O)C3CC3)ncc12 [Example 325, N-(5-(5-(7-methyl-3,7-diazabicyclo[3.3.1]nonan-3-yl)benzo[d]oxazol-2-yl)-8-(methylamino)-2,7-naphthyridin-3-yl)cyclopropanecarboxamide] | ≤ 100 | ≤ 500
CNc1ncc(-c2nc3cc(N4CC5CC(CN(C(C)=O)C5)C4)ccc3o2)c2cc(NC(=O)C3CC3)ncc12 [Example 326, N-(5-(5-(7-acetyl-3,7-diazabicyclo[3.3.1]nonan-3-yl)benzo[d]oxazol-2-yl)-8-(methylamino)-2,7-naphthyridin-3-yl)cyclopropanecarboxamide] | ≤ 100 | ≤ 500
CNc1ncc(-c2nc3cc(N4CC5CN(C)CC(C4)O5)ccc3o2)c2cc(NC(=O)C3CC3)ncc12 [Example 327, N-(5-(5-(7-methyl-9-oxa-3,7-diazabicyclo[3.3.1]nonan-3-yl)benzo[d]oxazol-2-yl)-8-(methylamino)-2,7-naphthyridin-3-yl)cyclopropanecarboxamide] | ≤ 100 | ≤ 500
CNc1ncc(-c2nc3cc(N4CCCS4(=O)=O)ccc3o2)c2cc(NC(=O)C3CC3)ncc12 [Example 328, N-(5-(5-(1,1-dioxidoisothiazolidin-2-yl)benzo[d]oxazol-2-yl)-8-(methylamino)-2,7-naphthyridin-3-yl)cyclopropanecarboxamide] | ≤ 100 | ≤ 500
CNc1ncc(-c2nc3cc(N4CCOC(C(F)F)C4)ccc3o2)c2cc(NC(=O)C3CC3)ncc12 (stereo not drawn) [Example 329, N-(5-(5-(2-(difluoromethyl)morpholino)benzo[d]oxazol-2-yl)-8-(methylamino)-2,7-naphthyridin-3-yl)cyclopropanecarboxamide] | ≤ 100 | ≤ 500
CNc1ncc(-c2nc3cc(N4CCOC(C(C)(F)F)C4)ccc3o2)c2cc(NC(=O)C3CC3)ncc12 (stereo not drawn) [Example 330, N-(5-(5-(2-(1,1-difluoroethyl)morpholino)benzo[d]oxazol-2-yl)-8-(methylamino)-2,7-naphthyridin-3-yl)cyclopropanecarboxamide] | ≤ 100 | ≤ 500
CNc1ncc(-c2nc3cc(N4CCOC(CO)C4)ccc3o2)c2cc(NC(=O)C3CC3)ncc12 (stereo not drawn) [Example 333, N-(5-(5-(2-(hydroxymethyl)morpholino)benzo[d]oxazol-2-yl)-8-(methylamino)-2,7-naphthyridin-3-yl)cyclopropanecarboxamide] | ≤ 100 | ≤ 500
C=C1COCCN(c2ccc3oc(-c4cnc(NC)c5cnc(NC(=O)C6CC6)cc45)nc3c2)C1 [Example 334, N-(8-(methylamino)-5-(5-(6-methylene-1,4-oxazepan-4-yl)benzo[d]oxazol-2-yl)-2,7-naphthyridin-3-yl)cyclopropanecarboxamide] | ≤ 100 | ≤ 500
CNc1ncc(-c2nc3cc(N4CCOCC(C)C4)ccc3o2)c2cc(NC(=O)C3CC3)ncc12 (stereo not drawn) [Example 335, N-(5-(5-(6-methyl-1,4-oxazepan-4-yl)benzo[d]oxazol-2-yl)-8-(methylamino)-2,7-naphthyridin-3-yl)cyclopropanecarboxamide] | ≤ 100 | ≤ 500
CNc1ncc(-c2nc3cc(OCC4COC4)ccc3o2)c2cc(NC(=O)C3CC3)ncc12 [Example 336, N-(8-(methylamino)-5-(5-(oxetan-3-ylmethoxy)benzo[d]oxazol-2-yl)-2,7-naphthyridin-3-yl)cyclopropanecarboxamide] | ≤ 100 | ≤ 500
CNc1ncc(-c2nc3cc(OCC4CCC4)ccc3o2)c2cc(NC(=O)C3CC3)ncc12 [Example 337, N-(5-(5-(cyclobutylmethoxy)benzo[d]oxazol-2-yl)-8-(methylamino)-2,7-naphthyridin-3-yl)cyclopropanecarboxamide] | ≤ 100 | > 500
CNc1ncc(-c2nc3cc(OCC#N)ccc3o2)c2cc(NC(=O)C3CC3)ncc12 [Example 338, N-(5-(5-(cyanomethoxy)benzo[d]oxazol-2-yl)-8-(methylamino)-2,7-naphthyridin-3-yl)cyclopropanecarboxamide] | ≤ 100 | ≤ 500
CNc1ncc(-c2nc3cc(OCF)ccc3o2)c2cc(NC(=O)C3CC3)ncc12 [Example 339, N-(5-(5-(fluoromethoxy)benzo[d]oxazol-2-yl)-8-(methylamino)-2,7-naphthyridin-3-yl)cyclopropanecarboxamide] | ≤ 100 | ≤ 500
CNc1ncc(-c2nc3cc(Oc4ccncc4)ccc3o2)c2cc(NC(=O)C3CC3)ncc12 [Example 340, N-(8-(methylamino)-5-(5-(pyridin-4-yloxy)benzo[d]oxazol-2-yl)-2,7-naphthyridin-3-yl)cyclopropanecarboxamide] | ≤ 100 | ≤ 500
CNc1ncc(-c2nc3cc(Oc4ccn(C)n4)ccc3o2)c2cc(NC(=O)C3CC3)ncc12 [Example 341, N-(5-(5-((1-methyl-1H-pyrazol-3-yl)oxy)benzo[d]oxazol-2-yl)-8-(methylamino)-2,7-naphthyridin-3-yl)cyclopropanecarboxamide] | ≤ 100 | ≤ 500
CNc1ncc(-c2nc3cc(C4=CCOCC4)ccc3o2)c2cc(NC(=O)C3CC3)ncc12 [Example 342, N-(5-(5-(3,6-dihydro-2H-pyran-4-yl)benzo[d]oxazol-2-yl)-8-(methylamino)-2,7-naphthyridin-3-yl)cyclopropanecarboxamide] | ≤ 100 | ≤ 500
CNc1ncc(-c2nc3cc(C4CCCO4)ccc3o2)c2cc(NC(=O)C3CC3)ncc12 (stereo not drawn) [Example 343, N-(8-(methylamino)-5-(5-(tetrahydrofuran-2-yl)benzo[d]oxazol-2-yl)-2,7-naphthyridin-3-yl)cyclopropanecarboxamide] | ≤ 100 | ≤ 500
CNc1ncc(-c2nc3cc(CCC#N)ccc3o2)c2cc(NC(=O)C3CC3)ncc12 [Example 344, N-(5-(5-(2-cyanoethyl)benzo[d]oxazol-2-yl)-8-(methylamino)-2,7-naphthyridin-3-yl)cyclopropanecarboxamide] | ≤ 100 | ≤ 500
CNc1ncc(-c2nc3cc(N4CCOCC4)ccc3o2)c2cc(NC(=O)C3CC3)ncc12 [Example 345, N-(8-(methylamino)-5-(5-morpholinobenzo[d]oxazol-2-yl)-2,7-naphthyridin-3-yl)cyclopropanecarboxamide] | ≤ 100 | ≤ 500
CNc1ncc(-c2nc3cc(OC4CCC4C(C)(C)OC)ccc3o2)c2cc(NC(=O)C3CC3)ncc12 (stereo not drawn) [Example 346, N-(5-(5-(2-(2-methoxypropan-2-yl)cyclobutoxy)benzo[d]oxazol-2-yl)-8-(methylamino)-2,7-naphthyridin-3-yl)cyclopropanecarboxamide] | ≤ 100 | ≤ 500
